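Grown in 96-well plates, cells were treated for 48 hours with each compound at five concentrations. Insufficient inhibition: endpoint recorded as highest concentration tested. At the GI50, growth is halved. TGI is the concentration that stops growth completely.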
Legend:
Experiment in all cases: NCI anticancer screen, dose series, 48 h
[1] = system: HT29 colon
[2] = system: HCT-116 colon
[3] = system: NCI-H226 lung
[4] = system: COLO 205 colon
[5] = system: HCT-15 colon
[6] = system: SK-OV-3 ovarian
[7] = system: SK-MEL-2 melanoma
[8] = system: SN12C renal
[9] = system: HS 578T breast
[10] = system: RXF 393 renal

In the case of CCCCCCCCCCCCCCCCCC1=NC(C)(C)CN1CCO, the GI50 [1] is reported as 1.37 µM, the TGI [1] is reported as 2.66 µM and the GI50 [2] is reported as 1.63 µM. For the same compound, the TGI [2] was 3.19 µM, the GI50 [3] was 2.84 µM and the TGI [3] was 9.04 µM. The GI50 [4] was 1.55 µM, the TGI [4] was 2.93 µM and the GI50 [5] was 1.61 µM. It also gave a TGI [5] of 3 µM, a GI50 [6] of 1.72 µM and a TGI [6] of 3.16 µM. It also gave a GI50 [7] of 1.97 µM, a TGI [7] of 3.63 µM and a GI50 [8] of 1.61 µM. For the same compound, the TGI [8] was 3.61 µM, the GI50 [9] was 1.66 µM and the TGI [9] was 3.93 µM.
C/C(=N/Nc1ccc([N+](=O)[O-])cc1[N+](=O)[O-])C(CC(C(=O)Nc1ccccc1C)/C(C)=N\Nc1ccc([N+](=O)[O-])cc1[N+](=O)[O-])C(=O)Nc1ccccc1C (stereo not drawn) was tested, and the TGI [1] was 28 µM, the TGI [2] was 26.4 µM and the TGI [3] was 19.3 µM. The TGI [4] was 25.4 µM, the TGI [5] was > 63.5 µM and the TGI [6] was > 61.2 µM. The TGI [10] was 24.3 µM, the TGI [7] was 28.2 µM and the TGI [8] was 12.7 µM.
In the case of O=C1c2ccccc2C(=O)c2c1ccc1c3ccccc3n(Cc3ccccc3)c21, the TGI [1] is reported as > 100 µM, the TGI [2] is reported as > 100 µM and the TGI [3] is reported as > 100 µM. The TGI [4] was > 100 µM, the TGI [5] was > 100 µM and the TGI [6] was > 100 µM. For the same compound, the TGI [7] was > 100 µM and the TGI [8] was > 100 µM.
Compound CCOC(=O)C1=C(c2ccccc2)N(Cc2ccccc2)C2(O)C=CC(=O)C3C(=O)N(c4ccccc4)C(=O)C132 (stereo not drawn) has a GI50 [1] of 1.93 µM, a TGI [1] of 4.83 µM and a GI50 [3] of 2.25 µM. It also gave a TGI [3] of 4.87 µM, a GI50 [4] of 1.74 µM and a TGI [4] of 3.45 µM. The GI50 [5] was 1.7 µM, the TGI [5] was 3.67 µM and the GI50 [6] was 3.29 µM. For the same compound, the TGI [6] was 10.7 µM, the GI50 [10] was 1.91 µM and the TGI [10] was 3.75 µM. The GI50 [8] was 1.55 µM, the TGI [8] was 4.9 µM and the GI50 [9] was 3.46 µM. The TGI [9] was 18.3 µM.
O=C(Nc1ccccc1)Nc1ccccc1CNc1nc(Nc2ccc(OCCN3CCCC3)cc2)ncc1Cl gave a GI50 [1] of 1.66 µM, a TGI [1] of 8.39 µM and a GI50 [2] of 1.75 µM. For the same compound, the TGI [2] was 7.12 µM, the GI50 [5] was 2 µM and the TGI [5] was 8.31 µM. For the same compound, the GI50 [10] was 1.44 µM, the TGI [10] was 5.84 µM and the GI50 [7] was 4.74 µM. The TGI [7] was 13.5 µM, the GI50 [8] was 2.41 µM and the TGI [8] was 9.12 µM. The GI50 [9] was 2.38 µM and the TGI [9] was 15.7 µM.
In the case of O=C1/C(=C/c2ccccc2)CN(C(=O)OCC(Cl)(Cl)Cl)C/C1=C\c1ccccc1, the TGI [1] is reported as 3.63 µM, the TGI [2] is reported as 2.6 µM and the TGI [4] is reported as 11.2 µM. It also gave a TGI [5] of 4.32 µM, a TGI [6] of 24.6 µM and a TGI [10] of 3.87 µM. For the same compound, the TGI [7] was 23.5 µM and the TGI [8] was 3.56 µM.
With CC[C@@]1(O)C(=O)OCc2c1cc1n(c2=O)Cc2cc3c(NC(C)=O)c(O)ccc3nc2-1 the GI50 [1] was 13.7 µM, the TGI [1] was > 77.5 µM and the GI50 [2] was 2.41 µM. For the same compound, the TGI [2] was 24.6 µM, the GI50 [3] was 2.98 µM and the TGI [3] was > 20.3 µM. For the same compound, the GI50 [4] was 17.6 µM, the TGI [4] was > 100 µM and the GI50 [5] was 18 µM. For the same compound, the TGI [5] was > 100 µM, the GI50 [6] was 1.4 µM and the TGI [6] was 45.7 µM. The GI50 [10] was 2.34 µM, the TGI [10] was 20.2 µM and the GI50 [7] was 17.8 µM. For the same compound, the TGI [7] was 53.5 µM, the GI50 [8] was 0.456 µM and the TGI [8] was > 20.8 µM.
CN1C(=O)C23CC4=CC=CC(O)C4N2C(=O)C1(CO)SS3 (stereo not drawn) gave a TGI [1] of 11.4 µM, a TGI [2] of 0.279 µM and a TGI [3] of 0.152 µM. The TGI [4] was 0.292 µM, the TGI [5] was 0.419 µM and the TGI [6] was 2.75 µM. The TGI [10] was 0.38 µM, the TGI [7] was 0.617 µM and the TGI [8] was 0.139 µM.
For CC(=O)N[C@@H]1CCC[C@H](C(=O)Nc2cc(-c3cnn4c3CC(C)(C)C4)c(Cl)cn2)C1, the GI50 [1] was < 0.0108 µM, the TGI [1] was > 100 µM and the GI50 [2] was < 0.01 µM. The TGI [2] was > 100 µM, the GI50 [3] was < 0.01 µM and the TGI [3] was 38.7 µM. The GI50 [5] was 0.0225 µM, the TGI [5] was > 100 µM and the GI50 [6] was 0.0633 µM. The TGI [6] was > 100 µM, the GI50 [10] was < 0.01 µM and the TGI [10] was < 0.01 µM. For the same compound, the GI50 [7] was 0.0121 µM, the TGI [7] was 0.041 µM and the GI50 [8] was 0.0103 µM. The TGI [8] was > 100 µM, the GI50 [9] was < 0.01 µM and the TGI [9] was 20.1 µM.
CCN1CC2(C)CC[C@@H](OC)C34[C@@H]2[C@H](OC(C)=O)C2(OCO[C@@]25C[C@H](OC)C2C[C@]3(O)[C@@H]5[C@H]2O)[C@H]14 was tested, and the TGI [1] was > 100 µM, the TGI [2] was > 100 µM and the TGI [3] was > 100 µM. The TGI [4] was > 100 µM, the TGI [10] was > 100 µM and the TGI [7] was > 100 µM. The TGI [8] was > 100 µM.
In the case of CCOc1cccnc1/C=N/NC(N)=S, the GI50 [1] is reported as 4.34 µM, the TGI [1] is reported as > 100 µM and the GI50 [2] is reported as 4.26 µM. For the same compound, the TGI [2] was > 100 µM, the GI50 [3] was 3.6 µM and the TGI [3] was 83 µM. For the same compound, the GI50 [4] was 3.87 µM, the TGI [4] was > 100 µM and the GI50 [5] was 4.08 µM. The TGI [5] was > 100 µM, the GI50 [6] was 5.01 µM and the TGI [6] was > 100 µM. The GI50 [7] was 9.93 µM, the TGI [7] was > 100 µM and the GI50 [8] was 3.5 µM. The TGI [8] was > 100 µM, the GI50 [9] was 52.3 µM and the TGI [9] was > 100 µM.
In the case of CN1c2ccccc2C(=O)Nc2cnc(Cl)nc21, the TGI [1] is reported as > 100 µM, the TGI [2] is reported as > 100 µM and the TGI [3] is reported as > 100 µM. The TGI [4] was > 100 µM, the TGI [5] was > 100 µM and the TGI [6] was > 100 µM. For the same compound, the TGI [10] was > 100 µM, the TGI [7] was > 100 µM and the TGI [8] was > 100 µM.
With COc1cc(C(=O)/C=C/c2c(C(F)(F)F)nc3sccn23)cc(OC)c1OC the GI50 [1] was 1.83 µM, the TGI [1] was 4.08 µM and the GI50 [2] was 1.01 µM. The TGI [2] was 2.19 µM, the GI50 [3] was 2.17 µM and the TGI [3] was 5.54 µM. It also gave a GI50 [4] of 1.94 µM, a TGI [4] of 3.44 µM and a GI50 [5] of 1.8 µM. The TGI [5] was 5.39 µM, the GI50 [6] was 2.87 µM and the TGI [6] was 8.99 µM. The GI50 [10] was 2.02 µM, the TGI [10] was 4.24 µM and the GI50 [7] was 2.26 µM. For the same compound, the TGI [7] was 5.09 µM, the GI50 [8] was 1.56 µM and the TGI [8] was 3.69 µM.
In the case of Cc1cccc(CC(C)(C)C)c1NC(=O)C(=O)C(C(=O)c1ccc2ccccc2c1)C1OC(=O)c2ccccc21 (stereo not drawn), the TGI [1] is reported as 51.6 µM, the TGI [2] is reported as > 100 µM and the TGI [3] is reported as 7.12 µM. The TGI [4] was 92 µM, the TGI [5] was 41.4 µM and the TGI [6] was > 100 µM. For the same compound, the TGI [10] was 14.5 µM, the TGI [7] was 34.2 µM and the TGI [8] was 36.9 µM.
With O=C(OCc1nc2ccc(Br)cc2c(=O)n1-c1ccccc1)c1ccccc1O the TGI [1] was > 100 µM, the TGI [2] was > 100 µM and the TGI [3] was > 100 µM. The TGI [4] was > 100 µM, the TGI [6] was > 100 µM and the TGI [10] was > 100 µM. The TGI [7] was > 100 µM and the TGI [8] was > 100 µM.
With CCC1NCC(=O)c2c1[nH]c1ccccc21 (stereo not drawn) the TGI [1] was > 100 µM, the TGI [2] was > 100 µM and the TGI [3] was > 100 µM. The TGI [4] was > 100 µM, the TGI [5] was > 100 µM and the TGI [6] was > 100 µM. The TGI [7] was > 100 µM and the TGI [8] was > 100 µM.
COC(=O)C(=O)C(C(=O)C(=O)Nc1ccccc1C(N)=O)c1nc2ccc(C(=O)c3ccccc3)cc2[nH]c1=O (stereo not drawn) was tested, and the TGI [1] was > 100 µM, the TGI [2] was > 100 µM and the TGI [3] was > 100 µM. For the same compound, the TGI [4] was > 100 µM, the TGI [5] was > 100 µM and the TGI [10] was > 100 µM. For the same compound, the TGI [7] was > 100 µM and the TGI [8] was > 100 µM.

— PubChem BioAssay (NCI)
